As a reminder, the viability is a read-out of living cells in per cent, often relative to untreated cells.

The assay concerns PC12 cells. As to the kind of experiment: Etoposide-induced apoptosis in PC12 cells, cell viability. Format: cell-based. Conditions: Rattus norvegicus, PC-12, etoposide-induced apoptosis, PC12 cells; for viability at 0.1 µM: 0.1 μM compound, vehicle 52.1 ± 7.32; for viability at 0.3 µM: 0.3 μM compound; for viability at 1 µM: 1 μM compound, read-out: % Viability 1 μM; for viability at 3 µM: 3 μM compound, read-out: % Viability 3 μM; for viability at 10 µM: 10 μM compound, read-out: % Viability 10 μM; for viability at 30 µM: 30 μM compound, read-out: % Viability 30 μM.

`CCOC(=O)Nc1ccc(NCc2ccccc2)nc1N` [AM-2-3, Ethyl (2-amino-6-(benzylamino)pyridin-3-yl)carbamate]: the viability at 0.1 µM is 83.2 ± 21.9%, the viability at 0.3 µM is 87.5 ± 1.65%, the viability at 1 µM was found to be 93.5 ± 5.31% and the viability at 3 µM is 78.6 ± 10.8%. Further, the viability at 10 µM worked out at 92.2 ± 3.97% and the viability at 30 µM amounted to 88.8 ± 5.02%.

As to `CCOC(=O)Nc1ccc(NCc2ccc(OC)cc2)nc1N` [AM-4-3, Ethyl (2-amino-6-((4-methoxybenzyl)amino)pyridin-3-yl)carbamate], the viability at 0.1 µM came to 86.8 ± 3.14%, the viability at 0.3 µM is 81.4 ± 13%, the viability at 1 µM is 71.8 ± 25.7% and the viability at 3 µM amounted to 79.7 ± 10.6%. Besides, the viability at 10 µM came out at 90 ± 16.3% and the viability at 30 µM was found to be 106 ± 13.3%.

Consider `CCOC(=O)Nc1ccc(NCc2ccc3ccccc3c2)nc1N` [AM-5-3, Ethyl (2-amino-6-((naphthalen-2-ylmethyl)amino)pyridin-3-yl)carbamate], for which the viability at 0.1 µM was 70.5 ± 24.2%, the viability at 0.3 µM is 76.9 ± 20.8%, the viability at 1 µM is 81.7 ± 12.6% and the viability at 3 µM turned out to be 57.6 ± 6.35%. Also, the viability at 10 µM came to 65.1 ± 22.6% and the viability at 30 µM is 103 ± 1.31%.

In the case of `CCOC(=O)Nc1ccc(NCc2ccc(SC(F)(F)F)cc2)nc1N` [AM-8-3, Ethyl (2-amino-6-((4-((trifluoromethyl)thio)benzyl)amino)pyridin-3-yl)carbamate], the viability at 0.1 µM came to 69 ± 9.99%, the viability at 0.3 µM worked out at 92.6 ± 9.23%, the viability at 1 µM turned out to be 82.3 ± 7.02% and the viability at 3 µM turned out to be 79.2 ± 23.6%. Also, the viability at 10 µM is 89.1 ± 2.16% and the viability at 30 µM is 110 ± 15.3%.

In the case of `CCOC(=O)Nc1ccc(NCc2ccc(-c3cccs3)cc2)nc1N` [AM-11-3, Ethyl (2-amino-6-((4-(thiophen-2-yl)benzyl)amino)pyridin-3-yl)carbamate], the viability at 0.1 µM was 64.1 ± 16.6%, the viability at 0.3 µM came to 77.1 ± 25.2%, the viability at 1 µM worked out at 89.8 ± 30.1% and the viability at 3 µM was 76.1 ± 12.8%. For the same compound, the viability at 10 µM was 89 ± 29.1% and the viability at 30 µM is 35.3 ± 5.69%.

As for `CCOC(=O)Nc1ccc(NCc2ccc(C(F)(F)F)cc2)nc1` [AM-15-3, Ethyl (6-((4-(trifluoromethyl)benzyl)amino)pyridin-3-yl)carbamate], the viability at 0.1 µM amounted to 59.7 ± 6.74%, the viability at 0.3 µM was found to be 54.1 ± 12.7%, the viability at 1 µM turned out to be 59 ± 12.9% and the viability at 3 µM turned out to be 64 ± 7.87%. The viability at 10 µM is 66.4 ± 4.11% and the viability at 30 µM amounted to 52.9 ± 8.69%.

For the compound `CCOC(=O)Nc1ccc(NCc2ccc(OC(F)(F)F)cc2)nc1N` [JG-33-4, Ethyl (2-amino-6-((4-(trifluoromethoxy)benzyl)amino)pyridin-3-yl)carbamate], the viability at 0.1 µM worked out at 71.3 ± 16.1%, the viability at 0.3 µM worked out at 81.6 ± 10.9%, the viability at 1 µM was found to be 79.8 ± 12.8% and the viability at 3 µM was 95.3 ± 14.6%. Also, the viability at 10 µM was determined as 88.9 ± 12.6% and the viability at 30 µM worked out at 82.4 ± 12.6%.

`CCOC(=O)Nc1ccc(NCc2ccccc2C(F)(F)F)nc1N` [JG-34-4, Ethyl (2-amino-6-((2-(trifluoromethyl)benzyl)amino)pyridin-3-yl)carbamate]: the viability at 0.1 µM was 74.6 ± 2.18%, the viability at 0.3 µM worked out at 72.4 ± 16.4%, the viability at 1 µM stood at 95.1 ± 10.3% and the viability at 3 µM stood at 91.5 ± 12.9%. In addition, the viability at 10 µM is 95.4 ± 19.3% and the viability at 30 µM amounted to 77.7 ± 6.86%.

With `Nc1nc(NCc2ccccc2C(F)(F)F)ccc1NC(=O)OCC(Cl)(Cl)Cl` [JG-35-4, 2,2,2-trichloroethyl (2-amino-6-((2-(trifluoromethyl)benzyl)amino)pyridin-3-yl)carbamate], the viability at 1 µM is 92.2 ± 37.2%, the viability at 3 µM was 108 ± 7.32%, the viability at 10 µM is 93.2 ± 21.6% and the viability at 30 µM was 71.6 ± 20.8%.

`CCOC(=O)Nc1ccc(NCCc2ccccc2)nc1N` [JG-36-4, Ethyl (2-amino-6-(phenethylamino)pyridin-3-yl)carbamate]: the viability at 0.1 µM came out at 52.1 ± 11.5%, the viability at 0.3 µM was 56.9 ± 12%, the viability at 1 µM came to 69.2 ± 7.1% and the viability at 3 µM came to 50 ± 9.09%. Moreover, the viability at 10 µM was found to be 59.6 ± 9.05% and the viability at 30 µM came to 60.5 ± 5.82%.

Take `CCOC(=O)Nc1ccc(NCc2cc(F)cc(C(F)(F)F)c2)nc1N` [JG-38-4, Ethyl (2-amino-6-((3-fluoro-5-(trifluoromethyl)benzyl)amino)pyridin-3-yl)carbamate]: the viability at 0.1 µM is 69 ± 13.6%, the viability at 0.3 µM worked out at 64.7 ± 12.5%, the viability at 1 µM is 69.7 ± 14.9% and the viability at 3 µM worked out at 72.9 ± 13.2%. The viability at 10 µM was determined as 90.1 ± 15.1% and the viability at 30 µM came out at 78.2 ± 12.5%.

With `CCOC(=O)Nc1ccc(N2CCOCC2)nc1N` [JG-41-4, Ethyl (2-amino-6-morpholinopyridin-3-yl)carbamate], the viability at 1 µM was 85.8 ± 15.5%, the viability at 3 µM was 88.7 ± 13.5%, the viability at 10 µM came to 78.9 ± 14.3% and the viability at 30 µM came out at 63.9 ± 12.4%.

For the compound `Cc1ccc(OC(=O)Nc2ccc(NCc3ccc(F)cc3)cc2N)cc1` [JG-48-6, p-tolyl (2-amino-4-((4-fluorobenzyl)amino)phenyl)carbamate], the viability at 1 µM worked out at 70 ± 16.1%, the viability at 3 µM was 91.6 ± 11%, the viability at 10 µM was 83.7 ± 2.26% and the viability at 30 µM turned out to be 67.5 ± 10.2%.

Consider `CC(C)(C)OC(=O)Nc1ccc(NCc2ccc(F)cc2)nc1N` [NK-13-1, tert-butyl 6-(4-fluorobenzylamino)-2-aminopyridin-3-ylcarbamate], for which the viability at 0.1 µM was 53.5 ± 9.17%, the viability at 0.3 µM was 47.6 ± 3.19%, the viability at 1 µM stood at 57.2 ± 13.6% and the viability at 3 µM was 42.2 ± 6.03%. In addition, the viability at 10 µM was 68.1 ± 21.6% and the viability at 30 µM came to 64.4 ± 12.8%.

Regarding `CCOC(=O)Nc1ccc(NCc2ccc(F)cc2)nc1` [NK-31-3], the viability at 1 µM amounted to 109 ± 35.9%, the viability at 3 µM worked out at 110 ± 19.4%, the viability at 10 µM was found to be 101 ± 15.9% and the viability at 30 µM was determined as 69.3 ± 14.9%.

As for `CCCCCCOC(=O)Nc1ccc(NCc2ccc(F)cc2)cc1N` [NK-34-2, Hexyl (2-amino-4-((4-fluorobenzyl)amino)phenyl)carbamate], the viability at 0.1 µM amounted to 63 ± 11.8%, the viability at 0.3 µM turned out to be 61 ± 5.7%, the viability at 1 µM was 65.8 ± 6.14% and the viability at 3 µM is 60.1 ± 11.4%. Besides, the viability at 10 µM stood at 72.1 ± 13.4% and the viability at 30 µM amounted to 73.2 ± 4.74%.

Regarding `Nc1nc(NCc2ccc(F)cc2)ccc1NC(=O)Oc1ccccc1` [NK-41-1, Phenyl (2-amino-6-((4-fluorobenzyl)amino)pyridin-3-yl)carbamate], the viability at 0.1 µM stood at 57.5 ± 3.62%, the viability at 0.3 µM is 53.4 ± 0.8%, the viability at 1 µM stood at 58.1 ± 2.08% and the viability at 3 µM is 59 ± 6.87%. The viability at 10 µM worked out at 68.9 ± 7.71% and the viability at 30 µM came out at 70.3 ± 10.6%.

Consider `Nc1nc(NCc2ccc(F)cc2)ccc1NC(=O)OCC1c2ccccc2-c2ccccc21` [NK-43-1, (9H-fluoren-9-yl)methyl (2-amino-6-((4-fluorobenzyl)amino)pyridin-3-yl)carbamate], for which the viability at 0.1 µM is 67.5 ± 6.34%, the viability at 0.3 µM amounted to 63.9 ± 6.2%, the viability at 1 µM turned out to be 69 ± 10.3% and the viability at 3 µM stood at 56.4 ± 8.99%. For the same compound, the viability at 10 µM stood at 66.7 ± 5.97% and the viability at 30 µM turned out to be 49.7 ± 1.76%.

For `C#CCOC(=O)Nc1ccc(NCc2ccc(F)cc2)nc1N` [NK-45-1, Prop-2-yn-1-yl (2-amino-6-((4-fluorobenzyl)amino)pyridin-3-yl)carbamate], the viability at 0.1 µM worked out at 60.4 ± 1.29%, the viability at 0.3 µM is 57.5 ± 3.95%, the viability at 1 µM turned out to be 64.9 ± 11.7% and the viability at 3 µM amounted to 61.9 ± 9.82%. Moreover, the viability at 10 µM was 65.4 ± 10.7% and the viability at 30 µM was 64.8 ± 3.9%.

Consider `Nc1nc(NCc2ccc(F)cc2)ccc1NC(=O)OCC(Cl)(Cl)Cl` [NK-46-1, 2,2,2-trichloroethyl (2-amino-6-((4-fluorobenzyl)amino)pyridin-3-yl)carbamate], for which the viability at 0.1 µM came to 74.1 ± 9.21%, the viability at 0.3 µM amounted to 108 ± 12.7%, the viability at 1 µM came out at 94.9 ± 8.18% and the viability at 3 µM is 77.2 ± 8.19%. Besides, the viability at 10 µM was 83.9 ± 18% and the viability at 30 µM was 113 ± 3.53%.

Turning to `CCOC(=O)Nc1ccc(NC(C)c2ccccc2)nc1N` (stereo not shown) [NK-52-3, Ethyl (2-amino-6-((1-phenylethyl)amino)pyridin-3-yl)carbamate], the viability at 0.1 µM came to 50 ± 1.04%, the viability at 0.3 µM is 56 ± 4.21%, the viability at 1 µM came out at 56.7 ± 5.69% and the viability at 3 µM was 66.2 ± 4.77%. Besides, the viability at 10 µM is 53.2 ± 2.3% and the viability at 30 µM worked out at 24 ± 6.78%.

With `CCOC(=O)Nc1ccc(NCc2ccc(-c3ccccc3)cc2)nc1N` [NK-57-3, Ethyl (6-(([1,1′-biphenyl]-4-ylmethyl)amino)-2-aminopyridin-3-yl)carbamate], the viability at 0.1 µM was 55.4 ± 14.8%, the viability at 0.3 µM worked out at 61.7 ± 12.7%, the viability at 1 µM was 63.7 ± 10.1% and the viability at 3 µM worked out at 48.9 ± 9.58%. For the same compound, the viability at 10 µM was 53.1 ± 14% and the viability at 30 µM stood at 62.3 ± 10.3%.

For `CCOC(=O)Nc1ccc(OCc2ccc(C(F)(F)F)cc2)nc1N` [NK-60-3, Ethyl (2-amino-6-((4-(trifluoromethyl)benzyl)oxy)pyridin-3-yl)carbamate], the viability at 0.1 µM came out at 64 ± 11%, the viability at 0.3 µM was 83.8 ± 11.5%, the viability at 1 µM was found to be 77.1 ± 7.31% and the viability at 3 µM came to 69.9 ± 8.54%. Moreover, the viability at 10 µM turned out to be 71.4 ± 19.6% and the viability at 30 µM was 77 ± 6.87%.

(Values after patent US11369593B2 (Texas Tech University System, priority 2017, dated 2022).)
